Here are results for eleven compounds from patent US6870028B1 (priority 1995, dated 2005).

Values after ≈ are worked out from the molar mass of the structure shown. Read-outs that look alike come from different tables or passages of the source.

The subject of experiment [1] is murine leukaemia P388. In words: in vitro cytotoxicity versus murine leukaemia P388. Type of experiment: cell-based. The note with it: Mus musculus. As for the experimental part:
(§1) Coupling of the peptide A-B to amino acid moiety of C (5) was carried out in a similar way. [drawing 25] [drawing 26] [drawing 27] Testing of Compounds • 1. The cytotoxicity of compounds described herein have been tested as described in J. Immunol. Methods, 65, 55-63, 1983 and the results are provided in Table 4 below, wherein P388 refers to in vitro test versus murine leukaemia P388, U373 refers to in vitro human glioblastoma/astrocytoma U373, HEY refers to in vitro human ovarian carcinoma HEY, MCF7 refers to in vitro human breast cancer MCF7. • 2.

In experiment [2] the test system is human glioblastoma/astrocytoma U373. In words: in vitro cytotoxicity versus human glioblastoma/astrocytoma U373. Type of experiment: cell-based. The following applies: for IC50: U373 MG. The protocol: as §1
The test system of experiment [3] is human breast cancer MCF7. In words: in vitro cytotoxicity versus human breast cancer MCF7. Type of experiment: cell-based. The protocol:
as §1

Experiment [4] has as its system human ovarian carcinoma HEY. The experiment is described as follows: in vitro cytotoxicity versus human ovarian carcinoma HEY. Type of experiment: cell-based. The protocol:
as §1

The subject of experiment [5] is human mammary carcinoma MCF7 cells. In words: antimitotic activity, percentage of mitotic cells in chromosome spreads. Type of experiment: cell-based. The following applies: for IC50: Homo sapiens; for IC50 / antimitotic activity, in words: 20 h treatment. The protocol: • 3. Compounds described herein were comparatively tested for their antimitotic activity against human mammary carcinoma MCF7 cells.
MCF7 cells were grown as a monolayer in RPMI supplemented with 15% fetal calf serum and antibiotics at 37° C. in humidified 10% CO2. All compounds were dissolved in dimethyl sulfoxide except for vinblastine (a known drug) which was a 1 mg/ml solution in physiological saline. Exponentially growing MCF7 cells were treated with different drug concentrations for 20 h, prepared for chromosome spreads, and the percentage of mitotic cells determined by fluorescence microscopy. Hemiasterlin, Hemiasterlin A and modified compounds were very potent antimitotic agents, with IC50 values of 0.3 nM and 3 nM respectively.

For experiment [6], the system named is MCF7 cells. In words: morphology of mitotic spindles by indirect immunofluorescence (β-tubulin antibody, bisbenzimide). In kind it is cell-based, human. From the text:
The effect of Hemiasterlin and Hemiasterlin A on the morphology of their mitotic spindles was examined by indirect immunofluorescence using a monoclonal antibody to β-tubulin and the distribution of their chromosomes using the fluorescent DNA dye bisbenzimide.

The subject of experiment [7] is P388 leukaemia cells. In words: in vivo P388 leukaemia model in mice.
[8] abbreviates: read-out: IC50 Values cell mitosis.

Take `CN[C@H](C(=O)N[C@H](C(=O)N(C)[C@H](/C=C(\C)C(=O)N[C@@H](CCCNC(=N)N)C(=O)O)C(C)C)C(C)(C)C)C(C)(C)c1c[nH]c2ccccc12`: the concentration for half-maximal inhibition (IC50) – broadly, the point on the concentration scale where inhibition reaches its midpoint – in experiment [1] is 7.3 ng/mL (≈ 10.9 nM); in experiment [2] it was 270 ng/mL (≈ 404 nM); in experiment [3] it was 6800 ng/mL (≈ 10200 nM); in experiment [4] it was 190 ng/mL (≈ 284 nM).
As for `CN[C@H](C(=O)N[C@H](C(=O)N(C)[C@H](/C=C(\C)C(=O)OC)C(C)C)C(C)(C)C)C(C)(C)c1cn(C)c2ccccc12`, the results for the concentration for half-maximal inhibition (IC50) in experiment [5] (setting [8]) and in experiment [3] were 0.216 ng/mL and 5.4 ng/mL (≈ 9.99 nM), respectively.
`CN[C@H](C(=O)N[C@H](C(=O)N(C)[C@H](CC(C)C(=O)O)C(C)C)C(C)(C)C)C(C)(C)c1cn(C)c2ccccc12` (stereo partly shown): the half-inhibitory concentration (IC50) in experiment [5] (setting [8]) came to 1.06 ng/mL.
In experiment [3], `CCOC(=O)/C(C)=C/[C@H](C(C)C)N(C)C(=O)[C@@H](NC(=O)[C@@H](NC)C(C)(C)c1cn(C)c2ccccc12)C(C)C` returned an IC50 of 100 ng/mL (≈ 185 nM).
`C=C1C[C@H](C)C(=O)N[C@@H](C)C(=O)N(C)[C@H](Cc2ccc(O)c(I)c2)C(=O)N[C@@H](C)C(=O)O[C@@H](C)C[C@@H](C)C1=O` [Compound 1, Geodiamolide G]: the “IC50 Values U373” value in experiment [2] is 7700 ng/mL (≈ 11700 nM). Besides, in experiment [4], the “IC50 Values HEY” value was determined as 8600 ng/mL (≈ 13100 nM).
In the case of `CN[C@H](C(=O)N[C@H](C(=O)N(C)[C@H](/C=C(\C)C(=O)O)C(C)C)C(C)(C)C)C(C)(C)c1c[nH]c2ccccc12` [Compound 2, Hemiasterlin A], the “lowest concentration causing maximal mitotic arrest” value in experiment [5] worked out at 10 nM. Also, in experiment [5], the “antimitotic activity, in words” value was “more potent than Taxol, Vinblastine and Nocodazole”. The IC50 in experiment [5] (setting [8]) is 1.02 ng/mL; in experiment [5] (read-out: antimitotic IC50) it was 3 nM; in experiment [1] it was 0.00171 ng/mL (≈ 0.00334 nM); in experiment [2] it was 1.5 ng/mL (≈ 2.93 nM); in experiment [3], 1.54 ng/mL (≈ 3 nM); in experiment [4] it was 7.6 ng/mL (≈ 14.8 nM). Further, the mitotic spindle morphology entry in experiment [6] (at 2 nM) is reported as “no completely normal spindles were seen”. Moreover, in experiment [6] (at 10 nM), the effect on microtubules entry was “caused microtubule depolymerisation in mitotic cells”.
For the compound `CN[C@H](C(=O)N[C@H](C(=O)N(C)[C@H](/C=C(\C)C(=O)O)C(C)C)C(C)C)C(C)(C)c1c[nH]c2ccccc12` [Compound 3, Hemiasterlin B], the IC50 in experiment [5] (setting [8]) amounted to 9.96 ng/mL; in experiment [1], 7 ng/mL (≈ 14 nM); in experiment [3], 15 ng/mL (≈ 30.1 nM); in experiment [4], 16 ng/mL (≈ 32.1 nM).
Consider `CN[C@H](C(=O)N[C@H](C(=O)N(C)[C@H](/C=C(\C)C(=O)O)C(C)C)C(C)(C)C)C(C)(C)c1cn(C)c2ccccc12` [Compound A, Hemiasterlin], for which the “antimitotic activity, in words” value in experiment [5] was “more potent than Taxol, Vinblastine and Nocodazole”. In addition, the IC50 in experiment [5] (setting [8]) was 0.158 ng/mL; in experiment [5] (read-out: antimitotic IC50), 0.3 nM; in experiment [1], 0.0457 ng/mL (≈ 0.0868 nM); in experiment [2], 12 ng/mL (≈ 22.8 nM); in experiment [3] it was 0.158 ng/mL (≈ 0.3 nM); in experiment [4], 1.4 ng/mL (≈ 2.66 nM). In addition, the “in vivo tests, result in words” value in experiment [7] (in vivo tests per NIH Publication No. 84-2635) was “cytotoxic”. Moreover, the long term survivors result in experiment [7] (mice injected with 1×10^6 P388 leukaemia cells, 5 daily doses of 0.45 μg) is recorded as “several long term survivors”. Further, in experiment [7] (mice injected with 1×10^6 P388 leukaemia cells, 5 daily doses of 0.45 μg begun 24 hours after implantation), the “%TC” value stood at 223%.
Regarding `COC(=O)Nc1nc2ccc(C(=O)c3cccs3)cc2[nH]1` [Nocodazole], the mitotic spindle morphology entry in experiment [6] (half-maximal concentrations) is “produced the same types of abnormal spindle as hemiasterlin A”. In addition, the effect on microtubules result in experiment [6] (high concentrations) is given as “microtubule depolymerisation in mitotic cells”.
As to `CC(=O)O[C@H]1C(=O)[C@@]2(C)[C@H]([C@H](OC(=O)c3ccccc3)[C@]3(O)C[C@H](OC(=O)[C@H](O)[C@@H](NC(=O)c4ccccc4)c4ccccc4)C(C)=C1C3(C)C)[C@]1(OC(C)=O)CO[C@@H]1C[C@@H]2O` [Taxol], the mitotic spindle morphology entry in experiment [6] (half-maximal concentrations) is “produced the same types of abnormal spindle as hemiasterlin A”. The effect on microtubules entry in experiment [6] (high concentrations) is “causing bundling of cytoplasmic microtubules in interphase cells and very dense multiple asters in mitotic cells”.
For the compound `CC[C@]1(O)C[C@@H]2CN(CCc3c([nH]c4ccccc34)[C@@](C(=O)OC)(c3cc4c(cc3OC)N(C)[C@H]3[C@@](O)(C(=O)OC)[C@H](OC(C)=O)[C@]5(CC)C=CCN6CC[C@]43[C@@H]65)C2)C1` [Vinblastine], the mitotic spindle morphology entry in experiment [6] (half-maximal concentrations) is “produced the same types of abnormal spindle as hemiasterlin A”. The effect on microtubules result in experiment [6] (high concentrations) is on record as “microtubule depolymerisation in mitotic cells”.
